Data taken from patent US20230027026A1, “FUSED PYRIMIDINE COMPOUNDS, COMPOSITIONS AND MEDICINAL APPLICATIONS THEREOF” (JUBILANT BIOSYS LIMITED, priority 2019, published 2023).
Counter-ions that a name gives are not always drawn. Like-named read-outs stand apart in the source and are kept apart here.

How the values were obtained:
Assay type in all cases: cell-based
A431 cells = experiment: Cellular proliferation (Alamar Blue) assay, A431; conditions: Homo sapiens
Protocol: (§1) Example 3: Cellular Proliferation (Alamar Blue) Assays
(§2) • 1. EGFR(D770_N771insSVD) expressing Ba/F3 stable cell line • 2. EGFR (A767_dupASV) expressing Ba/F3 stable cell line • 3. A431 cells • 4. BTER2 (A775_G776insYVMA) expressing Ba/F3 stable cell line • 5. BTER2 (WT) expressing Ba/F3 stable cell line • 6. BT-474 cells
(§3) • 1. Seed cells at 5000 for A431 and 15,000 cells for Ba/F3 in 100 μL/well in complete media (for A431: DMEM with 10% FBS and for Ba/F3 cells: RPMI with 10% FBS) in 96-well tissue culture plate. Leave outer wells without cells for background measurements. Incubate at 37 degree Celsius in 5% CO2 humidified incubator for 16-18 hours. • 2. Add 0.025 ml of 5× concentration compound dilution or DMSO control. Final compound concentration range is 10-0.0005 μM prepared in 3-fold serial dilutions. Incubate for 72 hr at 37 degree Celsius in […] humidified incubator. • 3. Add 0.0125 mL Alamar Blue™ reagent to each well with multi-channel pipette and tap gently on each side of the plate to mix. Incubate for 3 hours at 37 degree Celsius in […] humidified incubator. • 4. Read plates on fluorescence reader (Tecan Spark Control, Device: Spark, Serial #: 1801006040) at 540 nm excitation, 590 nm emission wavelength. • 5. Data analysis was performed using XLfit 5.5.0.5.

[1] = target: EGFR (A767_dupASV) expressing Ba/F3 stable cell line (Homo sapiens, UniProt P00533, DUP767-769, cells depend on it); experiment: Cellular proliferation (Alamar Blue) assay, EGFR A767_dupASV Ba/F3; conditions: EGFR A767_dupASV Ba/F3, 72 hr, read-out: A767 IC50
Chain of EGFR (A767_dupASV) expressing Ba/F3 stable cell line (P00533 with tags, fused parts or gaps DUP767-769): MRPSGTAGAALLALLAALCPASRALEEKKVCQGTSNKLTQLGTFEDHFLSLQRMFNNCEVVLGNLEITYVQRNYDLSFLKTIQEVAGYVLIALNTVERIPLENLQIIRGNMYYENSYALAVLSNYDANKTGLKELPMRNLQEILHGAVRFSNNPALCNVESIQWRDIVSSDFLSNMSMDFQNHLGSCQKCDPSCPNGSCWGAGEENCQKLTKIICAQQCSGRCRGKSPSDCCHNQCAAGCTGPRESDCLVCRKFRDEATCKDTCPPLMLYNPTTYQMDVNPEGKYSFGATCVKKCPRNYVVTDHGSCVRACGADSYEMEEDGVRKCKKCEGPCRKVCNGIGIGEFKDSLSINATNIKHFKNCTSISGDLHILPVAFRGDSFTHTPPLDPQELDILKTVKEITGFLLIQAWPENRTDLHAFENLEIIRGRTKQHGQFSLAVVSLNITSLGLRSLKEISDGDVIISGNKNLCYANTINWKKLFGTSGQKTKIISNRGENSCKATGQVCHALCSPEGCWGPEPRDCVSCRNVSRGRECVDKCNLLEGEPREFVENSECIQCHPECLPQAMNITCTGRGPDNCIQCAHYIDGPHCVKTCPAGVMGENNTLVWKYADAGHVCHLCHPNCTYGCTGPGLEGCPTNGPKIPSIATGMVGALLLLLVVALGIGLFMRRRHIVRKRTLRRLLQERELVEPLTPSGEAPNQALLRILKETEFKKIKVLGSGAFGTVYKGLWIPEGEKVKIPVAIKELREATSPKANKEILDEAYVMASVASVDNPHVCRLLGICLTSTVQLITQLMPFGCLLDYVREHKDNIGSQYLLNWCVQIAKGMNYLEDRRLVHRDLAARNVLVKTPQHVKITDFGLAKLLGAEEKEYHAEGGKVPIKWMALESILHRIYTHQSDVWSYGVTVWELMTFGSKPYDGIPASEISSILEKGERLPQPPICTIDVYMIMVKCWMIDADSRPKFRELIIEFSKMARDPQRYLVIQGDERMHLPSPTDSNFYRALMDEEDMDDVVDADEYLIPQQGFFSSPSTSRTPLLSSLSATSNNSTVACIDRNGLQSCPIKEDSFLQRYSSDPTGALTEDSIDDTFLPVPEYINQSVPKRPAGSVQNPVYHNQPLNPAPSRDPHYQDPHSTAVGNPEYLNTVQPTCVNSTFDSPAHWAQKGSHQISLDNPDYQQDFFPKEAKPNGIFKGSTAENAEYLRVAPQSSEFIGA
Protocol: as §1, §2, §3

[2] = target: EGFR(D770_N771insSVD) expressing Ba/F3 stable cell line (Homo sapiens, UniProt P00533, DUP768-770, cells depend on it); experiment: Cellular proliferation (Alamar Blue) assay, EGFR D770_N771insSVD Ba/F3; conditions: EGFR D770_N771insSVD Ba/F3, 72 hr, read-out: D770 IC50
Chain of EGFR(D770_N771insSVD) expressing Ba/F3 stable cell line (P00533 with tags, fused parts or gaps DUP768-770): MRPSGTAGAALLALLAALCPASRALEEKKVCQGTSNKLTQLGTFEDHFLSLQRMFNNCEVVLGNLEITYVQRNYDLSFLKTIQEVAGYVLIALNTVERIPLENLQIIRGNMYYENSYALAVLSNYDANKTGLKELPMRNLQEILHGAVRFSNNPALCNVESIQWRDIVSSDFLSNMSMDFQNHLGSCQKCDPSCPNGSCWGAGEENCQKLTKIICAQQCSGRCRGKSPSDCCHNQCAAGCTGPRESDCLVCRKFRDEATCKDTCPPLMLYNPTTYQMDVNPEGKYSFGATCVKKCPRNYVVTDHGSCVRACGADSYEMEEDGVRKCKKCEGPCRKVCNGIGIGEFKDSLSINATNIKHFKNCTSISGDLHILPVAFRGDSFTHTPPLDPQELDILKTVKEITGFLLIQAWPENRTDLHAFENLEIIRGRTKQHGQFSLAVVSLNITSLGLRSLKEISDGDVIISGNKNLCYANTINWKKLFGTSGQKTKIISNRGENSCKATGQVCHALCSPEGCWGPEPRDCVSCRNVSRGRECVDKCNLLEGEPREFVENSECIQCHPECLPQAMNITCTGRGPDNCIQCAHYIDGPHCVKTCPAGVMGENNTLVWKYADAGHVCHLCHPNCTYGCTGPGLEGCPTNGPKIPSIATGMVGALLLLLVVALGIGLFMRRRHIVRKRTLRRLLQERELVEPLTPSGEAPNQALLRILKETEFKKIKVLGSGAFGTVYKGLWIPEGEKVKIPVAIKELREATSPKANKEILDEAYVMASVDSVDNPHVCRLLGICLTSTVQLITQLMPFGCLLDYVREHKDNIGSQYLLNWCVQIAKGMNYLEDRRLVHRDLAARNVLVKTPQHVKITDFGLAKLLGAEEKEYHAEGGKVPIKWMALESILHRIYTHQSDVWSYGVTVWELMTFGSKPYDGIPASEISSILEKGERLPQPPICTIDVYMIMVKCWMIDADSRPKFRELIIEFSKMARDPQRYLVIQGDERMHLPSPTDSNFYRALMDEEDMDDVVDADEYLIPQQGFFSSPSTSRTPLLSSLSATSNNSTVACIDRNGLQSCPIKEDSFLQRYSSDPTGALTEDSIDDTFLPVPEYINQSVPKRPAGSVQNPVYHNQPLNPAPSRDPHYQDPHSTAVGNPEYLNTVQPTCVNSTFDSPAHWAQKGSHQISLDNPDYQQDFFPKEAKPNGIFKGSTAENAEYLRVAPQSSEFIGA
Protocol: as §1, §2, §3

[3] = A-431, A431 cells, 72 hr, Alamar Blue, read-out: A431 IC50

| SMILES | IC50 (A431 cells; [3]) | GI50 [1] | GI50 [2] | IC50 (A431 cells; A-431, 72 h, read-out: A431 IC50 (nM)) |
| --- | --- | --- | --- | --- |
| CN(C)C/C=C/C(=O)Nc1cccc(N2C(=O)N(Cc3ccccc3)Cc3cnc(Nc4cnc(N5CCOCC5)nc4)nc32)c1 [Compound 55, (E)-N-(3-(3-benzyl-7-((2-morpholinopyrimidin-5-yl)amino)-2-oxo-3,4-dihydropyrimido[4,5-d]pyrimidin-1(2H)-yl)phenyl)-4-(dimethylamino)but-2-enamide] | ≥ 10000 nM | 1670 nM | 3860 nM |  |
| CN(C)C/C=C/C(=O)Nc1cccc(N2C(=O)N(Cc3ccccc3)Cc3cnc(Nc4cn(CC(F)F)nc4Cl)nc32)c1 [Compound 101, (E)-N-(3-(3-benzyl-7-((3-chloro-1-(2,2-difluoroethyl)-1H-pyrazol-4-yl)amino)-2-oxo-3,4-dihydropyrimido[4,5-d]pyrimidin-1(2H)-yl)phenyl)-4-(dimethylamino)but-2-enamide] | ≥ 10000 nM | 100 nM | 176 nM |  |
| C[C@@H](c1ccccc1)N1Cc2cnc(Nc3cnn(C)c3)nc2N(c2cccc(NC(=O)/C=C/CN(C)C)c2)C1=O (single isomer, unassigned) [Compound 134] |  | 109 nM | 103 nM | ≥ 10000 nM |
| COCCn1cc(Nc2ncc3c(n2)N(c2cccc(NC(=O)/C=C/CN(C)C)c2)C(=O)N(Cc2ccccc2)C3)c(Cl)n1 [Compound 92, (E)-N-(3-(3-benzyl-7-((3-chloro-1-(2-methoxyethyl)-1H-pyrazol-4-yl)amino)-2-oxo-3,4-dihydropyrimido[4,5-d]pyrimidin-1(2H)-yl)phenyl)-4-(dimethylamino)but-2-enamide] | ≥ 10000 nM | 385 nM | 228 nM |  |
| CN(C)C/C=C/C(=O)Nc1cccc(N2C(=O)N(Cc3ccccc3)Cc3cnc(Nc4ccc(N5CCOCC5)nc4)nc32)c1 [Compound 54, (E)-N-(3-(3-benzyl-7-((6-morpholinopyridin-3-yl)amino)-2-oxo-3,4-dihydropyrimido[4,5-d]pyrimidin-1(2H)-yl)phenyl)-4-(dimethylamino)but-2-enamide] | ≥ 10000 nM | 224 nM | 337 nM |  |
| C=CC(=O)Nc1cccc(N2C(=O)N(c3ccccc3)Cc3cnc(Nc4cn(C5CCNCC5)nc4Cl)nc32)c1 [Compound 132, N-[3-(7-{[3-chloro-1-(piperidin-4-yl)-1H-pyrazol-4-yl]amino}-2-oxo-3-phenyl-1H,2H,3H,4H-pyrimido[4,5-d][1,3]diazin-1-yl)phenyl]prop-2-enamide] | ≥ 10000 nM | 960 nM | 973 nM |  |
| COc1ncccc1Nc1ncc2c(n1)N(c1cccc(NC(=O)/C=C/CN(C)C)c1)C(=O)N(Cc1ccccc1)C2 [Compound 103, (E)-N-(3-(3-benzyl-7-((2-methoxypyridin-3-yl)amino)-2-oxo-3,4-dihydropyrimido[4,5-d]pyrimidin-1(2H)-yl)phenyl)-4-(dimethylamino)but-2-enamide trifluoroacetate salt] | ≥ 10000 nM | 269 nM | 224 nM |  |
| C/C=C/C(=O)Nc1cccc(N2C(=O)N(Cc3ccccc3)Cc3cnc(Nc4cn(C)nc4F)nc32)c1 [Compound 87, (E)-N-(3-(3-benzyl-7-((3-fluoro-1-methyl-1H-pyrazol-4-yl)amino)-2-oxo-3,4-dihydropyrimido[4,5-d]pyrimidin-1(2H)-yl)phenyl)but-2-enamide] | > 10000 nM | 2240 nM | 1980 nM |  |
| C=CC(=O)Nc1cc(N2C(=O)N(Cc3ccccc3)Cc3cnc(Nc4cn(C)nc4Cl)nc32)ccc1OC(F)(F)F [Compound 78, N-(5-(3-benzyl-7-((3-chloro-1-methyl-1H-pyrazol-4-yl)amino)-2-oxo-3,4-dihydropyrimido[4,5-d]pyrimidin-1(2H)-yl)-2-(trifluoromethoxy)phenyl)acrylamide] | 4180 nM | 8370 nM | 8780 nM |  |
| CN(C)C/C=C/C(=O)Nc1cccc(N2C(=O)N(Cc3ccccc3)Cc3cnc(Nc4cnoc4)nc32)c1 [Compound 58, (E)-N-(3-(3-benzyl-7-(isoxazol-4-ylamino)-2-oxo-3,4-dihydropyrimido[4,5-d]pyrimidin-1(2H)-yl)phenyl)-4-(dimethylamino)but-2-enamide] | ≥ 10000 nM | 801 nM | 2110 nM |  |
| C=CC(=O)Nc1ccccc1N1C(=O)N(c2ccccc2)Cc2cnc(Nc3cn(C)nc3Cl)nc21 [Compound 130, N-(2-(7-((3-chloro-1-methyl-1H-pyrazol-4-yl)amino)-2-oxo-3-phenyl-3,4-dihydropyrimido[4,5-d]pyrimidin-1(2H)-yl)phenyl)acrylamide] | ≥ 10000 nM | ≥ 10000 nM | 9260 nM |  |
| CN(C)C/C=C/C(=O)Nc1cccc(N2C(=O)N(Cc3ccccc3)Cc3cnc(Nc4ccncc4)nc32)c1 [Compound 96, (E)-N-(3-(3-benzyl-2-oxo-7-(pyridin-4-ylamino)-3,4-dihydropyrimido[4,5-d]pyrimidin-1(2H)-yl)phenyl)-4-(dimethylamino)but-2-enamide] | ≥ 10000 nM | > 9350 nM | 4070 nM |  |
| CN(C)C/C=C/C(=O)Nc1cccc(N2C(=O)N(Cc3ccccc3)Cc3cnc(Nc4ccn(C)n4)nc32)c1 [Compound 52, (E)-N-(3-(3-benzyl-7-((1-methyl-1H-pyrazol-3-yl)amino)-2-oxo-3,4-dihydropyrimido[4,5-d]pyrimidin-1(2H)-yl)phenyl)-4-(dimethylamino)but-2-enamide] | ≥ 10000 nM | 244 nM | 341 nM |  |
| CN(C)C/C=C/C(=O)Nc1cccc(N2C(=O)N(Cc3ccccc3)Cc3cnc(Nc4ccc5c(c4)ncn5C)nc32)c1 [Compound 102, (E)-N-(3-(3-benzyl-7-((1-methyl-1H-benzo[d]imidazol-5-yl)amino)-2-oxo-3,4-dihydropyrimido[4,5-d]pyrimidin-1(2H)-yl)phenyl)-4-(dimethylamino)but-2-enamide] | ≥ 10000 nM | 694 nM | 929 nM |  |
| CN(C)C/C=C/C(=O)Nc1cccc(N2C(=O)N(Cc3ccccc3)Cc3cnc(Nc4cnc(N5CCN(C)CC5)nc4)nc32)c1 [Compound 59, (E)-N-(3-(3-benzyl-7-((2-(4-methylpiperazin-1-yl)pyrimidin-5-yl)amino)-2-oxo-3,4-dihydropyrimido[4,5-d]pyrimidin-1(2H)-yl)phenyl)-4-(dimethylamino)but-2-enamide] | ≥ 10000 nM | 8660 nM | ≥ 10000 nM |  |
| CN1CCN(C/C=C/C(=O)Nc2cccc(N3C(=O)N(c4ccccc4)Cc4cnc(Nc5cn(C)nc5Cl)nc43)c2)CC1 [Compound 126, (E)-N-(3-(7-((3-chloro-1-methyl-1H-pyrazol-4-yl)amino)-2-oxo-3-phenyl-3,4-dihydropyrimido[4,5-d]pyrimidin-1(2H)-yl)phenyl)-4-(4-methylpiperazin-1-yl)but-2-enamide] | ≥ 10000 nM | 1090 nM | 2290 nM |  |
| Cc1cn2cc(Nc3ncc4c(n3)N(c3cccc(NC(=O)/C=C/CN(C)C)c3)C(=O)N(Cc3ccccc3)C4)ccc2n1 [Compound 100, (E)-N-(3-(3-benzyl-7-((2-methylimidazo[1,2-a]pyridin-6-yl)amino)-2-oxo-3,4-dihydropyrimido[4,5-d]pyrimidin-1(2H)-yl)phenyl)-4-(dimethylamino)but-2-enamide] | ≥ 10000 nM | 2970 nM | 4810 nM |  |
| CN(C)C/C=C/C(=O)Nc1cccc(N2C(=O)N(Cc3ccccc3)Cc3cnc(Nc4cn(C)nc4C(F)(F)F)nc32)c1 [Compound 95, (E)-N-(3-(3-benzyl-7-((1-methyl-3-(trifluoromethyl)-1H-pyrazol-4-yl)amino)-2-oxo-3,4-dihydropyrimido[4,5-d]pyrimidin-1(2H)-yl)phenyl)-4-(dimethylamino)but-2-enamide] | 6500 nM | 106 nM | 97 nM |  |
| COc1nn(C)cc1Nc1ncc2c(n1)N(c1cccc(NC(=O)/C=C/CN(C)C)c1)C(=O)N(Cc1ccccc1)C2 [Compound 56, (E)-N-(3-(3-benzyl-7-((3-methoxy-1-methyl-1H-pyrazol-4-yl)amino)-2-oxo-3,4-dihydropyrimido[4,5-d]pyrimidin-1(2H)-yl)phenyl)-4-(dimethylamino)but-2-enamide] | ≥ 10000 nM | 65 nM | 107 nM |  |
| CN(C)C/C=C/C(=O)Nc1cccc(N2C(=O)N(Cc3ccc(F)cc3)Cc3cnc(Nc4cn(C)nc4Cl)nc32)c1 [Compound 57, (E)-N-(3-(7-((3-chloro-1-methyl-1H-pyrazol-4-yl)amino)-3-(4-fluorobenzyl)-2-oxo-3,4-dihydropyrimido[4,5-d]pyrimidin-1(2H)-yl)phenyl)-4-(dimethylamino)but-2-enamide] | ≥ 10000 nM | 115 nM | 476 nM |  |
